Experimental data from ChEMBL document CHEMBL5046291, “Evodiamine-Inspired Topoisomerase-Histone Deacetylase Dual Inhibitors: Novel Orally Active Antitumor Agents for Leukemia Therapy” (J Med Chem, 2022).
pIC50: −log10 of the molar value.

Tests used:
MCF7 = test: Antiproliferative activity against human MCF7 cells assessed as cell growth inhibition incubated for 8 hrs by CCK8 assay; format: functional, cell-based; settings: MCF7, 8 h
A549 = test: Antiproliferative activity against human A549 cells assessed as cell growth inhibition incubated for 8 hrs by CCK8 assay; format: functional, cell-based; settings: A549, 8 h
HCT-116 = test: Antiproliferative activity against human HCT-116 cells assessed as cell growth inhibition incubated for 8 hrs by CCK8 assay; format: functional, cell-based; settings: HCT-116, 8 h
HepG2 = test: Antiproliferative activity against human HepG2 cells assessed as cell growth inhibition incubated for 8 hrs by CCK8 assay; format: functional, cell-based; settings: HepG2, 8 h
K562 = test: Antiproliferative activity against human K562 cells assessed as cell growth inhibition incubated for 8 hrs by CCK8 assay; format: functional, cell-based; settings: K562, 8 h
HEL [1] = test: Antiproliferative activity against HEL cells assessed as cell growth inhibition incubated for 8 hrs by CCK8 assay; format: functional, cell-based; settings: Homo sapiens
HEL [2] = test: Synergistic antiproliferative effect on HEL cells assessed as fractional inhibitory concentration index at 10 uM in presence of vorinostat; format: functional, Homo sapiens
HEL [3] = test: Synergistic antiproliferative effect on HEL cells assessed as fractional inhibitory concentration index at 3.33 uM in presence of vorinostat; format: functional, Homo sapiens
HEL [4] = test: Synergistic antiproliferative effect on HEL cells assessed as fractional inhibitory concentration index at 1.11 uM in presence of vorinostat; format: functional, Homo sapiens
HEL [5] = test: Synergistic antiproliferative effect on HEL cells assessed as fractional inhibitory concentration index at 0.37 uM in presence of vorinostat; format: functional, Homo sapiens
HEL [6] = test: Synergistic antiproliferative effect on HEL cells assessed as fractional inhibitory concentration index at 0.12 uM in presence of vorinostat; format: functional, Homo sapiens
HEL [7] = test: Synergistic antiproliferative effect on HEL cells assessed as fractional inhibitory concentration index at 0.04 uM in presence of vorinostat; format: functional, Homo sapiens
HEL [8] = test: Synergistic antiproliferative effect on HEL cells assessed as fractional inhibitory concentration index at 0.014 uM in presence of vorinostat; format: functional, Homo sapiens
HEL [9] = test: Synergistic antiproliferative effect on HEL cells assessed as fractional inhibitory concentration index at 0.0046 uM in presence of vorinostat; format: functional, Homo sapiens
HEL [10] = test: Synergistic antiproliferative effect on HEL cells assessed as combination index at 10 uM in presence of vorinostat; format: functional, Homo sapiens
HEL [11] = test: Synergistic antiproliferative effect on HEL cells assessed as combination index at 3.33 uM in presence of vorinostat; format: functional, Homo sapiens
HEL [12] = test: Synergistic antiproliferative effect on HEL cells assessed as combination index at 1.11 uM in presence of vorinostat; format: functional, Homo sapiens
HEL [13] = test: Synergistic antiproliferative effect on HEL cells assessed as combination index at 0.37 uM in presence of vorinostat; format: functional, Homo sapiens
HEL [14] = test: Synergistic antiproliferative effect on HEL cells assessed as combination index at 0.12 uM in presence of vorinostat; format: functional, Homo sapiens
HEL [15] = test: Synergistic antiproliferative effect on HEL cells assessed as combination index at 0.04 uM in presence of vorinostat; format: functional, Homo sapiens
HEL [16] = test: Synergistic antiproliferative effect on HEL cells assessed as combination index at 0.014 uM in presence of vorinostat; format: functional, Homo sapiens
HEL [17] = test: Synergistic antiproliferative effect on HEL cells assessed as combination index at 0.046 uM in presence of vorinostat; format: functional, Homo sapiens
HEL [18] = test: Antitumor activity against HEL cells xenografted in BALB/C mouse assessed as tumor growth inhibition at 10 mg/kg, po qd for 14 days consecutively by caliper method relative to control; format: functional, Homo sapiens; settings: 336 h, time 14 day, read-out: TGI
HEL [19] = test: Antitumor activity against HEL cells xenografted in BALB/C mouse assessed as T/C value at 10 mg/kg, po qd for 14 days consecutively by caliper method relative to control; format: functional, Homo sapiens; settings: time 14 day

- pIC50 (MCF7): 6.12
- pIC50 (A549): 6.28
- pIC50 (HCT-116): 6.72
- pIC50 (HepG2): 6.37
- pIC50 (K562): 6.64
SMILES: CN1c2ccc(F)cc2C(=O)N2CCc3c([nH]c4ccc(O)cc34)C21 (centres undefined)
- pIC50 (HEL [1]): 6.89
- fractional inhibitory concentration index (FICI) (HEL [2]): 0.86
- fractional inhibitory concentration index (FICI) (HEL [3]): 0.862
- fractional inhibitory concentration index (FICI) (HEL [4]): 0.852
- fractional inhibitory concentration index (FICI) (HEL [5]): 0.868
- fractional inhibitory concentration index (FICI) (HEL [6]): 0.853
- fractional inhibitory concentration index (FICI) (HEL [7]): 0.836
- fractional inhibitory concentration index (FICI) (HEL [8]): 0.802
- fractional inhibitory concentration index (FICI) (HEL [9]): 0.727
- CI (HEL [10]): 1.03
- CI (HEL [11]): 0.954
- CI (HEL [12]): 0.954
- CI (HEL [13]): 0.956
- CI (HEL [14]): 0.798
- CI (HEL [15]): 0.784
- CI (HEL [16]): 0.561
- CI (HEL [17]): 0.453
- inhibition in vivo at 10 mg/kg (HEL [18]): 7.4%
- T/C (HEL [19]): 94.9%
